Test results from US10590115B2, “Tetrahydroquinazoline derivatives useful as anticancer agents” (PFIZER INC., priority 2018, dated 2020).

What was measured:
[1] = target: T1, KRAS G12C in MiaPaCa2 cells (Homo sapiens, UniProt P01116, G12C); test: MiaPaCa2 Cell Activity Assay (Raf-1 RBD capture of active Ras, MSD); type: cell-based; conditions: MIAPaCa-2 cells, 6 hours treatment; assay limit is 30.0 μM
T1 construct: endogenous in cells; host or cells: MiaPaCa2
Procedure: MiaPaCa2 Cell Activity Assay
(§1) Compounds presented in the present invention lead to the accumulation of the GDP bound Ras upon treatment of human cancer cell line.
(§2) The accumulation of the GDP-bound KRAS G12C in cellular environment was measured based on the principle that KRAS G12C only binds to its downstream kinase; Raf-1 (MAP Kinase Kinase Kinase), when in its active-GTP bound state. In this state, Ras binded to a domain of Raf-1 kinase referred to as the Ras Binding Domain (RBD).
(§3) MiaPaCa2 cells were grown in DMEM medium (Gibco 11995) supplemented with 10% fetal bovine serum and 1% penicillin/streptomycin. Cells were seeded in 96-well tissue culture plates at a density of 40,000 cells/well and allowed to attach for 16-24 hours. Test compounds were prepared as a 10 mM stock in DMSO and serially diluted in 100% DMSO using a 3-fold dilution scheme. An intermediate 5× concentrated plate in complete growth medium was made and 25 μl/well was added to the 100 μl of cells for a final concentration of 0.1% DMSO. Each concentration of exemplary compound was tested in duplicate. The negative control wells were cells with control inhibitor at 10 μM, and the positive control wells were cells without drugs, DMSO only. Plates were incubated for 6 hours at 37° C., 5% CO2. Following treatment, cells were washed 3× with ice-cold PBS and 100 μl/well ice-cold 1× Assay/Lysis. Buffer with protease inhibitors was added (25 mM HEPES, pH 7.5, 150 mM NaCl, 1% NP-40, 10 mM MgCl2, 1 mM EDTA, 2% Glycerol). Following lysis samples were frozen at −80° C.
(§4) Raf-1 RBD (LJIC-1988A1) was diluted to 100 ng/well in PBS and 5 μl/well was spot coated onto MSD high bind SECTOR plates (L15XB). Plates were incubated at room temperature for 1 hour on an orbital shaker. Plates were washed with PBS/0.05% Tween-20 and 50 μl/well of thawed lysate samples were added, followed by 50 μl of 1% MSD Blocker A in PBS/0.05% Tween-20 (R93BA). Plates were incubated for 1 hour on an orbital shaker and washed with PBS/0.05% Tween-20. 25 μl/well of Anti-pan-Ras Antibody (Cell Biolabs 244003) diluted 1:3000 was added in 1% MSD Blocker A solution and plates were incubated for 1 hour on an orbital shaker and washed with PBS/0.05% Tween-20. SULFO-TAG goat anti-mouse secondary antibody (MSD R32AC) was diluted 1:500 in MSD Blocker A solution and added at 25 μL/well. Plates were incubated for 1 hour on an orbital shaker and washed with PBS/0.05% Tween-20. 150 μl/well of Read Buffer T (MSD R92TC) diluted 1:3 in H2O was added and plates were read on a Meso Scale Discovery Sector Imager S600.
(§5) KRAS signal was normalized to maximum inhibition and DMSO control values, and IC50 values were generated using a 4 parameter fit of the dose response curve. The decrease in IC50 reflects that the exemplary compound lead to a higher level of accumulation of GDP-bound KRAS G12C than another exemplary compounds at specific timepoint of treatment of cancer cell line.

KRAS G12C in H358 cells = target: T2, KRAS G12C in H358 cells (Homo sapiens, UniProt P01116, G12C); test: H358 Cell Activity Assay (Raf-1 RBD capture of active Ras, MSD); type: cell-based; conditions: 6 hours treatment
T2 construct: endogenous in cells; host or cells: H358
Procedure: as §1, §2
as §3, with “H358” for “MiaPaCa2”, “RPMI 1640” for “DMEM”, “11875)” for “11995)”
as §4, §5

[2] = target: T3, GDP-loaded kRas (1-169) G12C, C51S, C80L, C118S (Homo sapiens, UniProt P01116, C118S/C51S/C80L/G12C); test: Mass Spectrometry Reactivity Assay (MSRA), covalent adduct with kRas G12C; type: binding; conditions: 0.5 h at room temperature; 5 μM KRas protein; typical final concentration of the compounds 10 μM
T3 construct: GDP-loaded kRas (1-169) G12C, C51S, C80L, C118S
Procedure: Mass Spectrometry Reactivity Assay (MSRA)
Compounds presented in the present invention covalently bind to kRas G12C using MSRA to detect a covalent adduct of the exemplary compound and kRas G12C. GDP-loaded kRas (1-169) G12C, C51S, C80L, C118S were diluted in the protein assay buffer 25 mM Hepes pH7.5, 200 mM NaCl, 5% glycerol to concentration of 5 μM and 20 μl of protein was transferred into 96-well plate. […] See K-Ras(G12C) inhibitors allosterically control GTP affinity and effector interactions; Ostrem J M, Peters U, Sos M L, Wells J A, Shokat K M; Nature. 2013, Nov. 28; 503(7477):548-51.
Exemplary compounds dissolved in DMSO were diluted 100-fold into solution containing 20 μl of 5 μM KRas protein in the 96-well plate to initiate the reaction. Mosquito (TPP Lab tech) liquid handling robot was used to add compounds to protein solution. Typical final concentration of the compounds was 10 μM. The plates were placed on a shaker for 1 min at RT, sealed and incubated at room temperature for specified time period. 5 μl of reaction mix was added to 10 μl of 0.2% formic acid stop solution and mixed well. Typical end points were 30, 120, 600 and 1440 min.
Data were collected using Waters Acquity H-class UPLC system/Xevo G2-XS TOF mass spectrometer. The protein was injected in their liquid phase onto a Bruker Microtrap protein column TR1/15109/03. The following buffers were used to set LC gradient: Buffer A: 0.2% formic acid H20; B: 0.2% formic acid CAN. The protein was eluted from the column using the following LC Gradient: 0-0.4 min, 10% B to 30% B; 0.4 min-2.4 min, to 90% B, 2.5 min, 10% B, 3 min, 10% B. Initial data analysis was performed using MaxEnt software right after data acquisition.
The standard auto processing function was used to define percentage of unmodified and modified kRas protein using MexEnt software right after data acquisition. The highest peak was defined as 100% while smaller peak as assigned the number defined by autoprocessing function. The percent of modification corresponding to modified with exemplary compound and unmodified KRas GDP-loaded kRas (1-169) G12C, C51S, C80L, C118S were exported to Xcel data analysis software.
The percent of modified protein at the defined concentration of exemplary compound was calculated using the following formula: % mod=Num of modified peak/Sum of modified+unmodified.

| SMILES | IC50 [1] [µM] | IC50 (KRAS G12C in H358 cells) [µM] | % Modification (0.5 h) [2] [%] |
| --- | --- | --- | --- |
| C=CC(=O)N1CCN(c2nc(N3CC(N(C)C)C3)nc3c2C[C@@H](C)[C@H](c2c(Cl)ccc4[nH]ncc24)C3)CC1 (relative stereo) [Example F5, 1-(4-{(6R,7R)-rel-7-(5-chloro-1H-indazol-4-yl)-2-[3-(dimethylamino)azetidin-1-yl]-6-methyl-5,6,7,8-tetrahydroquinazolin-4-yl}piperazin-1-yl)prop-2-en-1-one] | 0.154 | 0.145 | 72 |
| C=CC(=O)N1CCN(c2nc(N3CC(N(C)C)C3)nc3c2C[C@@H](C)[C@H](c2c(Cl)c(C)cc4[nH]ncc24)C3)CC1 (relative stereo) [Example F6, 1-(4-{(6R,7R)-rel-7-(5-chloro-6-methyl-1H-indazol-4-yl)-2-[3-(dimethylamino)azetidin-1-yl]-6-methyl-5,6,7,8-tetrahydroquinazolin-4-yl}piperazin-1-yl)prop-2-en-1-one] | 0.126 | 0.116 | 83 |
| C=CC(=O)N1CCN(c2nc(N3CC(N(C)C)C3)nc3c2C[C@@H](C)[C@H](c2c(C)ccc4[nH]ncc24)C3)CC1 (single isomer, unassigned) [Example F2] | 0.285 | 0.277 | 79 |
| C=CC(=O)N1CCN(c2ncnc3c2C[C@@H](C)[C@H](c2c(C)ccc4[nH]ncc24)C3)CC1 [Example A5, 1-{4-[(6R,7R)-6-methyl-7-(5-methyl-1H-indazol-4-yl)-5,6,7,8-tetrahydroquinazolin-4-yl]piperazin-1-yl}prop-2-en-1-one] | 0.64 | 0.78 | 77 |
| C=CC(=O)N1CCN(c2nc(OCCCN(C)C)nc3c2C[C@@H](C)[C@H](c2c(C)ccc4[nH]ncc24)C3)CC1 [Example C5, 1-{4-[(6R,7R)-2-[3-(dimethylamino)propoxy]-6-methyl-7-(5-methyl-1H-indazol-4-yl)-5,6,7,8-tetrahydroquinazolin-4-yl]piperazin-1-yl}prop-2-en-1-one] | 0.214 | 0.468 | 74 |
| C=CC(=O)N1CCN(c2nc(OCCN(C)C)nc3c2C[C@@H](C)[C@H](c2c(C)ccc4[nH]ncc24)C3)CC1 [Example C6, 1-{4-[(6R,7R)-2-[2-(dimethylamino)ethoxy]-6-methyl-7-(5-methyl-1H-indazol-4-yl)-5,6,7,8-tetrahydroquinazolin-4-yl]piperazin-1-yl}prop-2-en-1-one] | 0.26 | 0.521 | 66 |
| C=CC(=O)N1CCN(c2nc(OC[C@@H]3CCCN3C)nc3c2C[C@@H](C)[C@H](c2c(C)ccc4[nH]ncc24)C3)CC1 [Example C9, 1-{4-[(6R,7R)-6-methyl-7-(5-methyl-1H-indazol-4-yl)-2-{[(2S)-1-methylpyrrolidin-2-yl]methoxy}-5,6,7,8-tetrahydroquinazolin-4-yl]piperazin-1-yl}prop-2-en-1-one] | 0.382 | 0.27 | 74 |
| C=CC(=O)N1CCN(c2nc(N3CC(N(C)C)C3)nc3c2C[C@@H](C)[C@H](c2c(Cl)c(C)cc4[nH]ncc24)C3)CC1 [Example F7, 1-(4-{(6R,7R)-7-(5-chloro-6-methyl-1H-indazol-4-yl)-2-[3-(dimethylamino)azetidin-1-yl]-6-methyl-5,6,7,8-tetrahydroquinazolin-4-yl}piperazin-1-yl)prop-2-en-1-one] | 0.108 | 0.062 | 82 |
| C=CC(=O)N1CCN(c2nc(N3CC(N(C)C)C3)nc3c2C[C@@H](C)[C@H](c2c(Cl)c(C)cc4[nH]ncc24)C3)C[C@H]1C [Example F12, 1-[(2R)-4-{(6R,7R)-7-(5-chloro-6-methyl-1H-indazol-4-yl)-2-[3-(dimethylamino)azetidin-1-yl]-6-methyl-5,6,7,8-tetrahydroquinazolin-4-yl}-2-methylpiperazin-1-yl]prop-2-en-1-one] | 0.06 | 0.064 | 84 |
| C=CC(=O)N1CCN(c2nc(N3CC(N(C)C)C3)nc3c2C[C@@H](C)[C@H](c2c(C)c(Cl)cc4[nH]ncc24)C3)CC1 [Example F14, 1-(4-{(6R,7R)-7-(6-chloro-5-methyl-1H-indazol-4-yl)-2-[3-(dimethylamino)azetidin-1-yl]-6-methyl-5,6,7,8-tetrahydroquinazolin-4-yl}piperazin-1-yl)prop-2-en-1-one] | 0.068 | 0.102 | 72 |
